Patent US10155768B2, “Fused pyrimidine compound or salt thereof” (TAIHO PHARMACEUTICAL CO., LTD., priority 2016, dated 2018)

assay: Evaluation of stability in liver microsome; settings: mouse liver microsome 0.25 mg/mL, 1 μM test compound, 37° C. for 30 minutes

| Structure (SMILES) | Remaining (%) |
| --- | --- |
| Nc1ncnc2c1c(C(=O)Nc1ccc(Oc3ccccc3)cc1)cn2C1CCCC1 [Compound 2 of Comparative Examples, 4-amino-7-cyclopentyl-N-(4-phenoxyphenyl)-7H-pyrrolo[2,3-d]pyrimidine-5-carboxamide, reference compound] | 0 |
| COCc1ccc(NC(=O)c2cn(C(C)(C)C)c3ncnc(N)c23)cc1 [Example 2, 4-amino-7-(tert-butyl)-N-(4-(methoxymethyl)phenyl)-7H-pyrrolo[2,3-d]pyrimidine-5-carboxamide] | 64 |
| COCc1ccc(NC(=O)c2cn(C(C)(C)CF)c3ncnc(N)c23)cc1 [Example 26, 4-amino-7-(1-fluoro-2-methylpropan-2-yl)-N-(4-(methoxymethyl)phenyl)-7H-pyrrolo[2,3-d]pyrimidine-5-carboxamide] | 60 |
| COCc1ccc(NC(=O)c2cn(C(C)(C)C)c3ncnc(N)c23)cc1F [Example 30, 4-amino-7-(tert-butyl)-N-(3-fluoro-4-(methoxymethyl)phenyl)-7H-pyrrolo[2,3-d]pyrimidine-5-carboxamide] | 54 |
| COCc1ccc(NC(=O)c2cn(C(C)(C)C)c3ncnc(N)c23)c(OC)c1 [Example 33, 4-amino-7-(tert-butyl)-N-(2-methoxy-4-(methoxymethyl)phenyl)-7H-pyrrolo[2,3-d]pyrimidine-5-carboxamide] | 57 |
| [2H]C([2H])([2H])OCc1ccc(NC(=O)c2cn(C(C)(C)C)c3ncnc(N)c23)cc1 [Example 35, 4-amino-7-(tert-butyl)-N-(4-((methoxy-d3)-methyl)phenyl)-7H-pyrrolo[2,3-d]pyrimidine-5-carboxamide] | 58 |
| COCc1ccc(NC(=O)c2cn(C3(C)CC3)c3ncnc(N)c23)cc1 [Example 36, 4-amino-N-(4-(methoxymethyl)phenyl)-7-(1-methylcyclopropyl)-7H-pyrrolo[2,3-d]pyrimidine-5-carboxamide] | 73 |
| COCc1ccc(NC(=O)c2cn(C(C)(C)CF)c3ncnc(N)c23)cc1F [Example 41, 4-amino-7-(1-fluoro-2-methylpropan-2-yl)-N-(3-fluoro-4-(methoxymethyl)phenyl)-7H-pyrrolo[2,3-d]pyrimidine-5-carboxamide] | 56 |
| COCc1ccc(NC(=O)c2cn(C3(CF)CC3)c3ncnc(N)c23)cc1 [Example 45, 4-amino-7-(1-(fluoromethyl)cyclopropyl)-N-(4-(methoxymethyl)phenyl)-7H-pyrrolo[2,3-d]pyrimidine-5-carboxamide] | 66 |
| COCc1ccc(NC(=O)c2cn(C3(C(F)F)CC3)c3ncnc(N)c23)cc1 [Example 46, 4-amino-7-(1-(difluoromethyl)cyclopropyl)-N-(4-(methoxymethyl)phenyl)-7H-pyrrolo[2,3-d]pyrimidine-5-carboxamide] | 65 |
| COCc1ccc(NC(=O)c2cn(C3(C)CC3)c3ncnc(N)c23)cc1F [Example 48, 4-amino-N-(3-fluoro-4-(methoxymethyl)phenyl)-7-(1-methylcyclopropyl)-7H-pyrrolo[2,3-d]pyrimidine-5-carboxamide] | 58 |
| COCc1ccc(NC(=O)c2cn(C3(C4CC4)CC3)c3ncnc(N)c23)cc1 [Example 49, 7-{[1,1-bi(cyclopropane)]-1-yl}-4-amino-N-(4-(methoxymethyl)phenyl)-7H-pyrrolo[2,3-d]pyrimidine-5-carboxamide] | 67 |
| COCc1ccc(NC(=O)c2cn(C(C)(C)C(F)F)c3ncnc(N)c23)cc1 [Example 50, 4-amino-7-(1,1-difluoro-2-methylpropan-2-yl)-N-(4-(methoxymethyl)phenyl)-7H-pyrrolo[2,3-d]pyrimidine-5-carboxamide] | 53 |
| COCc1ccc(NC(=O)c2c(Br)n(C3(C)CC3)c3ncnc(N)c23)cc1 [Example 55, 4-amino-6-bromo-N-[4-(methoxymethyl)phenyl]-7-(1-methylcyclopropyl)-7H-pyrrolo[2,3-d]pyrimidine-5-carboxamide] | 56 |
| COCc1ccc(NC(=O)c2c(Cl)n(C3(C)CC3)c3ncnc(N)c23)cc1 [Example 56, 4-amino-6-chloro-N-[4-(methoxymethyl)phenyl]-7-(1-methylcyclopropyl)-7H-pyrrolo[2,3-d]pyrimidine-5-carboxamide] | 62 |
| COCc1ccc(NC(=O)c2c(OC)n(C3(C)CC3)c3ncnc(N)c23)cc1 [Example 57, 4-amino-6-methoxy-N-[4-(methoxymethyl)phenyl]-7-(1-methylcyclopropyl)-7H-pyrrolo[2,3-d]pyrimidine-5-carboxamide] | 86 |

| Structure (SMILES) | Remaining (%) |
| --- | --- |
| COCc1ccc(NC(=O)c2c(C)n(C(C)(C)C)c3ncnc(N)c23)cc1 [Example 60, 4-amino-7-(tert-butyl)-N-(4-(methoxymethyl)phenyl)-6-methyl-7H-pyrrolo[2,3-d]pyrimidine-5-carboxamide] | 81 |
| COCc1ccc(NC(=O)c2c(-c3cccnc3)n(C3(C)CC3)c3ncnc(N)c23)cc1 [Example 61, 4-amino-N-(4-(methoxymethyl)phenyl)-7-(1-methylcyclopropyl)-6-(pyridin-3-yl)-7H-pyrrolo[2,3-d]pyrimidine-5-carboxamide] | 81 |
| COCc1ccc(NC(=O)c2c(C(C)=O)n(C3(C)CC3)c3ncnc(N)c23)cc1 [Example 64, 6-acetyl-4-amino-N-(4-(methoxymethyl)phenyl)-7-(1-methylcyclopropyl)-7H-pyrrolo[2,3-d]pyrimidine-5-carboxamide] | 89 |
| C=Cc1c(C(=O)Nc2ccc(COC)cc2)c2c(N)ncnc2n1C1(C)CC1 [Example 65, 4-amino-N-(4-(methoxymethyl)phenyl)-7-(1-methylcyclopropyl)-6-vinyl-7H-pyrrolo[2,3-d]pyrimidine-5-carboxamide] | 79 |
| COCc1ccc(NC(=O)c2c(F)n(C3(C)CC3)c3ncnc(N)c23)cc1 [Example 69, 4-amino-6-fluoro-N-(4-(methoxymethyl)phenyl)-7-(1-methylcyclopropyl)-7H-pyrrolo[2,3-d]pyrimidine-5-carboxamide] | 69 |
| CC(C)(C)n1cc(C(=O)Nc2ccc(-c3cc[nH]n3)cc2)c2c(N)ncnc21 [Example 80, N-(4-(1H-pyrazol-3-yl)phenyl)-4-amino-7-(tert-butyl)-7H-pyrrolo[2,3-d]pyrimidine-5-carboxamide] | 50 |
| COCc1ccc(NC(=O)c2c(C#CCC(C)(C)O)n(C3(C)CC3)c3ncnc(N)c23)cc1 [Example 86, 4-amino-6-(4-hydroxy-4-methylpent-1-yn-1-yl)-N-[4-(methoxymethyl)phenyl]-7-(1-methylcyclopropyl)-7H-pyrrolo[2,3-d]pyrimidine-5-carboxamide] | 66 |
| COCc1ccc(NC(=O)c2c(C#CC3CCOCC3)n(C3(C)CC3)c3ncnc(N)c23)cc1 [Example 87, 4-amino-N-[4-(methoxymethyl)phenyl]-7-(1-methylcyclopropyl)-6-((tetrahydro-2H-pyran-4-yl)ethynyl)-7H-pyrrolo[2,3-d]pyrimidine-5-carboxamide] | 63 |
| COCc1ccc(NC(=O)c2c(C#CCN3CCCC3)n(C3(C)CC3)c3ncnc(N)c23)cc1 [Example 88, 4-amino-N-[4-(methoxymethyl)phenyl]-7-(1-methylcyclopropyl)-6-(3-(pyrrolidin-1-yl)prop-1-yn-1-yl)-7H-pyrrolo[2,3-d]pyrimidine-5-carboxamide] | 59 |
| COCc1ccc(NC(=O)c2c(OC[C@H]3CCCO3)n(C3(C)CC3)c3ncnc(N)c23)cc1 [Example 89, (R)-4-amino-N-[4-(methoxymethyl)phenyl]-7-(1-methylcyclopropyl)-6-((tetrahydrofuran-2-yl)methoxy)-7H-pyrrolo[2,3-d]pyrimidine-5-carboxamide] | 69 |
| COCc1ccc(NC(=O)c2c(C#Cc3cnn(C)c3)n(C3(C)CC3)c3ncnc(N)c23)cc1 [Example 90, 4-amino-N-[4-(methoxymethyl)phenyl]-6-((1-methyl-1H-pyrazol-4-yl)ethynyl)-7-(1-methylcyclopropyl)-7H-pyrrolo[2,3-d]pyrimidine-5-carboxamide] | 67 |
| COCc1ccc(NC(=O)c2c(C#Cc3cnc4cccnn34)n(C3(C)CC3)c3ncnc(N)c23)cc1 [Example 91, 4-amino-6-(imidazo[1,2-b]pyridazin-3-ylethynyl)-N-[4-(methoxymethyl)phenyl]-7-(1-methylcyclopropyl)-7H-pyrrolo[2,3-d]pyrimidine-5-carboxamide] | 65 |
| COCc1ccc(NC(=O)c2c(C#Cc3ccn(C)n3)n(C3(C)CC3)c3ncnc(N)c23)cc1 [Example 92, 4-amino-N-(4-(methoxymethyl)phenyl)-6-((1-methyl-1H-pyrazol-3-yl)ethynyl)-7-(1-methylcyclopropyl)-7H-pyrrolo[2,3-d]pyrimidine-5-carboxamide] | 67 |
| COCc1ccc(NC(=O)c2c(C#Cc3cncn3C)n(C3(C)CC3)c3ncnc(N)c23)cc1 [Example 93, 4-amino-N-(4-(methoxymethyl)phenyl)-6-((1-methyl-1H-imidazol-5-yl)ethynyl)-7-(1-methylcyclopropyl)-7H-pyrrolo[2,3-d]pyrimidine-5-carboxamide] | 53 |
| COCc1ccc(NC(=O)c2c(C#Cc3cccnc3)n(C3(C)CC3)c3ncnc(N)c23)cc1 [Example 94, 4-amino-N-[4-(methoxymethyl)phenyl]-7-(1-methylcyclopropyl)-6-(pyridin-3-ylethynyl)-7H-pyrrolo[2,3-d]pyrimidine-5-carboxamide] | 60 |
| COCc1ccc(NC(=O)c2c(OC[C@@H](C)OC)n(C3(C)CC3)c3ncnc(N)c23)cc1 [Example 96, (R)-4-amino-N-(4-(methoxymethyl)phenyl)-6-(2-methoxypropoxy)-7-(1-methylcyclopropyl)-7H-pyrrolo[2,3-d]pyrimidine-5-carboxamide] | 71 |

same assay, conditions: mouse liver microsome, 1 μM, 37° C., 30 minutes

| Structure (SMILES) | percentage of the remaining test compounds (remaining %) [%] |
| --- | --- |
| Nc1ncnc2c1c(C(=O)Nc1ccc(Oc3ccccc3)cc1)cn2C1CCCC1 [Compound 2 of Comparative Examples, 4-amino-7-cyclopentyl-N-(4-phenoxyphenyl)-7H-pyrrolo[2,3-d]pyrimidine-5-carboxamide, reference compound] | 0 |
